Source: patent publication US11452699B2, “Method of treating or preventing tumors of the central nervous system” (Berg LLC, priority 2011, dated 2022)

Key:
Format in all cases: in vivo
[1] = test system: CNS chloroleukemia (metastatic, leukemic CNS tumors); assay: Long term effect of CoQ10 on CNS chloroleukemia in paraplegic Fischer 344 rats (Example 2)
Method: FIG. 4: Long-term Effect of CoQ10 on CNS Leukemia. 300 paraplegic animals with overt CNS leukemia were randomized into two groups of 150 animals each: one received phosphate buffered saline (PBS) and the other group received 100 mg/kg CoQ10 once daily starting on day 1 through day 28 (first cycle). A second cycle of 100 mg/kg CoQ10 once daily started on day 35 and continued through day 62. Animals received two cycles of 28 days each of CoQ10. On days 173 and 195 as indicated by *, 5 animals were sacrificed for necropsy and pathology analysis.
The model of CNS chloroleukemia in Fischer 344 rats provided in Example 1 was used for long term studies of the treatment of metastatic, leukemic CNS tumors. As in Example 1 chloroleukemic cells were injected into the rats as newborns and lipopolysaccharide (LPS) was given as a first-line of treatment. The cure rate with this regimen was approximately 50%, and approximately 10% of survivors developed CNS leukemia as judged by their motor skills and the presence of quadriplegia and paraplegia.
For this study of long term effect of CoQ10 on CNS leukemia, 300 paraplegic animals with overt CNS leukemia were randomized into two groups of 150 animals each. Group one received a saline control. Group two received 100 mg/kg CoQ10 once daily starting on day 1 through day 28 (first cycle). The second cycle started on day 35 and continued through day 62. […]

[2] = test system: CNS chloroleukemia (chloroleukemic cell line MIAC51); assay: Treatment of CNS chloroleukemia in paraplegic Fischer 344 rats with CoQ10 IV (Example 1)
Method: (§1) A model of CNS chloroleukemia was created using Fischer 344 rats, in which chloroleukemic cells were injected into the rats as newborns and lipopolysaccharide (LPS) was given as a first-line of treatment. The cure rate with this regimen was approximately 50%, and approximately 10% of survivors developed CNS leukemia as judged by their motor skills and the presence of quadriplegia and paraplegia.
(§2) For this study, 2400 Fischer 344 neonates were injected with the chloroleukemic cell line MIAC51 and treated with LPS. All animals with overt signs of leukemia, i.e., systemic disease, were sacrificed by day 26. […] Of that cohort, 150 animals were selected with hind leg paraplegia on day 40, see FIGS. 1A and 1B. These animals were then re-randomized into 5 groups: group 1 received no treatment, group 2 received excipient control IV, group 3 received 5 mg/kg CoQ10 IV (i.e., 15 mg/kg/day), group 4 received 10 mg/kg IV (i.e., 30 mg/kg/day), and group 5 received 25 mg/kg IV (i.e., 75 mg/kg/day) for 4 weeks, 3 times daily.

[3] = test system: chloroleukemic cells; assay: First-line lipopolysaccharide treatment of chloroleukemia in Fischer 344 rats injected as newborns (model creation)
Method: as §1, §2

Row | Compound | necropsy and pathological analysis for chloroleukemia or CNS tumors ([1]; 100 mg/kg CoQ10, five animals sacrificed on days 173 and 195) | recovery of motor skills / ability to walk ([1]; 100 mg/kg IV once daily, two cycles of 28 days (days 1-28 and 35-62)) | signs of improvement (CNS abnormalities, motor skills) ([2]; 5 mg/kg IV 3 times daily (15 mg/kg/day) for 4 weeks, group 3) | MRI for tumor cells ([2]; 5 mg/kg IV 3 times daily (15 mg/kg/day), group 3) | signs of improvement (CNS abnormalities, motor skills) ([2]; 10 mg/kg IV 3 times daily (30 mg/kg/day) for 4 weeks, group 4) | MRI for tumor cells ([2]; 10 mg/kg IV 3 times daily (30 mg/kg/day), group 4) | recovery of motor skills / ability to walk ([2]; 25 mg/kg IV three times per day (75 mg/kg/day) for 4 weeks, group 5) | MRI for tumor cells ([2]; 25 mg/kg IV three times per day (75 mg/kg/day), group 5, FIGS. 3A and B) | mortality due to CNS tumors (mortality curves) ([2]; FIG. 2, animals treated with or without CoQ10, 5, 10, 25 mg/kg IV 3 times daily) | cure rate ([3]; LPS as first-line treatment after injection of chloroleukemic cells into newborn rats) | survivors that developed CNS leukemia (motor skills, quadriplegia and paraplegia) ([3]; survivors of LPS first-line regimen)
1 | COC1=C(OC)C(=O)C(C/C=C(\C)CC/C=C(\C)CC/C=C(\C)CC/C=C(\C)CC/C=C(\C)CC/C=C(\C)CC/C=C(\C)CC/C=C(\C)CC/C=C(\C)CCC=C(C)C)=C(C)C1=O [CoQ10, Coenzyme Q10] | No evidence of chloroleukemia or CNS tumors were found | significant recovery of their motor skills and regained their ability to walk | did not exhibit any signs of improvement | positive for tumor cells | did not exhibit any signs of improvement | positive for tumor cells | significant recovery of their motor skills and regained their ability to walk | lack of tumor cells | decrease in mortality due to CNS tumors is observed in a dose-dependent manner | – | –
2 | lipopolysaccharide [lipopolysaccharide (LPS)] | – | – | – | – | – | – | – | – | – | approximately 50% | approximately 10%
